For eight molecules, AC50 results are on record in ChEMBL document CHEMBL5291721, “A preclinical secondary pharmacology resource illuminates target-adverse drug reaction associations of marketed drugs” (Nat Commun, 2023).

The target in test [1] is Glucagon receptor (Homo sapiens, UniProt P47871).
Test [2] deals with T1, Neuropeptide Y receptor type 2 (Homo sapiens, UniProt P49146).
T1 sequence (P49146 whole entry): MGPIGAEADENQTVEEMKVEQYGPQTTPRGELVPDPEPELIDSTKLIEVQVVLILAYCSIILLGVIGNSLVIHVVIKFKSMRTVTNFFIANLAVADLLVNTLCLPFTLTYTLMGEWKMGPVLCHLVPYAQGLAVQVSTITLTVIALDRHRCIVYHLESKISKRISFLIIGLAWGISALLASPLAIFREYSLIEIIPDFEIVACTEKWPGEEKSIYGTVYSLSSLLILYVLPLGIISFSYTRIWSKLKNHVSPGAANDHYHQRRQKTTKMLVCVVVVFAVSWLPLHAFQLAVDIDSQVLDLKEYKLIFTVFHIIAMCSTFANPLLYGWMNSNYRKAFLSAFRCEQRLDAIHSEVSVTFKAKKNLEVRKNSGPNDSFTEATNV

Test [3] addresses T2, Alpha-2A adrenergic receptor (Homo sapiens, UniProt P08913).
T2 sequence (P08913 whole entry): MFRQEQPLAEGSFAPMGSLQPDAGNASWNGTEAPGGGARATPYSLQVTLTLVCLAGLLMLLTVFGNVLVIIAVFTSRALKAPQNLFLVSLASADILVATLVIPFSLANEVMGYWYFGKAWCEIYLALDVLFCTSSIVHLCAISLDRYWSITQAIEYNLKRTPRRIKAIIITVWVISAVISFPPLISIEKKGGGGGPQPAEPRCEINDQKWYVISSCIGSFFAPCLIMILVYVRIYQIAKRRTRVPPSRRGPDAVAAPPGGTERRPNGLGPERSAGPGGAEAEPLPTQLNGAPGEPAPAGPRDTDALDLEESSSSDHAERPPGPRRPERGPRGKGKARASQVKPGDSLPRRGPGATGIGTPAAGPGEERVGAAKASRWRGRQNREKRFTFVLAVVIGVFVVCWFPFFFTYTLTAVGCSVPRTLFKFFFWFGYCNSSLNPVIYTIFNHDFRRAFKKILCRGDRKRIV

Test [4] concerns the target 5-hydroxytryptamine receptor 2A (Homo sapiens, UniProt P28223).
The target of test [5] is T3, Endothelin receptor type B (Homo sapiens, UniProt P24530).
T3 sequence (P24530 whole entry): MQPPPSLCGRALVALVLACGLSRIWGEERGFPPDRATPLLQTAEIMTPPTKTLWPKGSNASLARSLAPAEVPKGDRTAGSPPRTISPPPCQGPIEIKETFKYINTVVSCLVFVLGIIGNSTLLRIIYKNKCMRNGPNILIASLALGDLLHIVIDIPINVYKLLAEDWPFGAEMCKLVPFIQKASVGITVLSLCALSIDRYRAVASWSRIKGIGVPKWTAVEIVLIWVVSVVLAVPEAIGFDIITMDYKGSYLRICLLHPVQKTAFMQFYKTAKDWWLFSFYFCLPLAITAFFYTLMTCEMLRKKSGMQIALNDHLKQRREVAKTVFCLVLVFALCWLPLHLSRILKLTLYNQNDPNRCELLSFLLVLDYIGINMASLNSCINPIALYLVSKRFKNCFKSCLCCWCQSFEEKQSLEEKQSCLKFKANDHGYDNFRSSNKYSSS

Test [6] concerns the target T4, 5-hydroxytryptamine receptor 1A (Homo sapiens, UniProt P08908).
T4 sequence (P08908 whole entry): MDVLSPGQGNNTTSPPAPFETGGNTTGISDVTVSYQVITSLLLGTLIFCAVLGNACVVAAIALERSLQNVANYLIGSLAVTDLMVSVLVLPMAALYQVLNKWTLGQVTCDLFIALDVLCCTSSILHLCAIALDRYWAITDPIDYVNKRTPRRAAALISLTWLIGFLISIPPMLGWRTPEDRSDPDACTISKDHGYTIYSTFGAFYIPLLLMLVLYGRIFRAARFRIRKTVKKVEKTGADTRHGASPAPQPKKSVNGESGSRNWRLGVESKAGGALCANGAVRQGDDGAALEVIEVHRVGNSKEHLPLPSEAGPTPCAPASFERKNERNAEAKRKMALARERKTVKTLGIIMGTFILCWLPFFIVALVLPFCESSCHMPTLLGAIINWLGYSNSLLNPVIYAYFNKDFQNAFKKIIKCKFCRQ

In test [7] the target is T5, Progesterone receptor (Homo sapiens, UniProt P06401).
T5 sequence (P06401 whole entry): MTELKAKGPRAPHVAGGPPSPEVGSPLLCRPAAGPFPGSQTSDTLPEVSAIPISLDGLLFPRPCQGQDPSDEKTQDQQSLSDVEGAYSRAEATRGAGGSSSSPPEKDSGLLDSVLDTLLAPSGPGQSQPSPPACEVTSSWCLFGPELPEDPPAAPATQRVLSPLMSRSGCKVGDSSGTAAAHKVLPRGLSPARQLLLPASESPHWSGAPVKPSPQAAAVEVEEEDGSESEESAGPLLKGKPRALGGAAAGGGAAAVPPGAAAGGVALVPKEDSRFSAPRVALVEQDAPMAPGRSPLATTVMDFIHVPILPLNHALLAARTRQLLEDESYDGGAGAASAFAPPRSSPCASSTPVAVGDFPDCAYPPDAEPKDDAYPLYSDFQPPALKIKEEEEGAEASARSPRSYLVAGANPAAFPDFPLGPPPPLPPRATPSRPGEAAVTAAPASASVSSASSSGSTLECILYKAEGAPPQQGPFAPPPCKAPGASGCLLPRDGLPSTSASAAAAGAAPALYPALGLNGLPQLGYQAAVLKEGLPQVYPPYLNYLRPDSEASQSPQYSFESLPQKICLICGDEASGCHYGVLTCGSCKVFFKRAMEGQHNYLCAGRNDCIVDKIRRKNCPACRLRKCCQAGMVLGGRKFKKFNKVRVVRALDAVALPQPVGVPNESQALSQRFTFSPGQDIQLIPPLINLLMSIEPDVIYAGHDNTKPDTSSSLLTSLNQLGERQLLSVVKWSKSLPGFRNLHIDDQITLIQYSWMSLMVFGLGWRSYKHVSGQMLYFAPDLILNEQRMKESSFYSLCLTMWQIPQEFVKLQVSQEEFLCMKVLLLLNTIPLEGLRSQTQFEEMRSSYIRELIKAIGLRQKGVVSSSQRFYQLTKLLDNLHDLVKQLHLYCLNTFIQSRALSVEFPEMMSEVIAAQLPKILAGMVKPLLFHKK

For test [8], the target named is 5-hydroxytryptamine receptor 2B (Homo sapiens, UniProt P41595).
Sequence of 5-hydroxytryptamine receptor 2B (P41595 whole entry): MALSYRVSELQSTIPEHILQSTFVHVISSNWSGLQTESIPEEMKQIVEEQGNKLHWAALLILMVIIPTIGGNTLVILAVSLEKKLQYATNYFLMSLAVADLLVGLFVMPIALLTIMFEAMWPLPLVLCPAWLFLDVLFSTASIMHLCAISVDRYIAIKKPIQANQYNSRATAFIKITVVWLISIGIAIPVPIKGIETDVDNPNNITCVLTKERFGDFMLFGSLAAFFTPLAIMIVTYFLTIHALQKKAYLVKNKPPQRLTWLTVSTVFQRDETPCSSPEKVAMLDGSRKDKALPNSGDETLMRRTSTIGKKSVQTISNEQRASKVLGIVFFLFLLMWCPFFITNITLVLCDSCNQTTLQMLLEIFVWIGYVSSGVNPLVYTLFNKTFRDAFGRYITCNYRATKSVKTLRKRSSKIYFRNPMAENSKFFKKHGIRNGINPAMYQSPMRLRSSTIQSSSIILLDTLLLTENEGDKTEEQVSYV

SMILES strings stand for the structures.
Note: assay procedure not described here.

Sequence of 5-hydroxytryptamine receptor 2A (P28223 whole entry): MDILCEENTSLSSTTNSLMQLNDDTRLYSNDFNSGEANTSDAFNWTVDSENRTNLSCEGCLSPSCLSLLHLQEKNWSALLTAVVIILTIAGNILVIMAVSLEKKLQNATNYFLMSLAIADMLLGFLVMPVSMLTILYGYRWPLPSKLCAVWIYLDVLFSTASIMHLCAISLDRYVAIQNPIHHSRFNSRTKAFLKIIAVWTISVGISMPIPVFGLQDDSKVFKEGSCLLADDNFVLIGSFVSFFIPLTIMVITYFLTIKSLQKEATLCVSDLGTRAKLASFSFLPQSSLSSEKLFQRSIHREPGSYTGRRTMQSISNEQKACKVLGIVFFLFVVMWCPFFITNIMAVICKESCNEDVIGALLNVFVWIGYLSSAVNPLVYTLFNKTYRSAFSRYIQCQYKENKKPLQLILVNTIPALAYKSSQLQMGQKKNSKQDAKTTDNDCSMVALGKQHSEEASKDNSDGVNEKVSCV
Sequence of Glucagon receptor (P47871 whole entry): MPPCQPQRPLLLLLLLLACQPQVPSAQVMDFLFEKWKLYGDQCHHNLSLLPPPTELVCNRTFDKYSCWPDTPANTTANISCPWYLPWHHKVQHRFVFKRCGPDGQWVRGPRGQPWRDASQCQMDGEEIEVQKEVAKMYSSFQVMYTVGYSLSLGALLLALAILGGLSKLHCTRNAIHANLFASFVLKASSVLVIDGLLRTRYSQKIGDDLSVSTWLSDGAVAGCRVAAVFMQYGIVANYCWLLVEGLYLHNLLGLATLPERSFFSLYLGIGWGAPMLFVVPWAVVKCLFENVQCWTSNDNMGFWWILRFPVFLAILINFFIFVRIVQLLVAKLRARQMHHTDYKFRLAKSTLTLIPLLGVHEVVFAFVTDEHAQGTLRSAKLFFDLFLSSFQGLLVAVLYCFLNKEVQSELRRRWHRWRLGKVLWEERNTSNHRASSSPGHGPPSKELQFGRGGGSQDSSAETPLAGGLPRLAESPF

As for `O=C(O)CCCc1ccccc1` [PHENYLBUTANOIC ACID], the AC50 (usually the concentration giving half of the maximal activity seen) is over 30 µM in test [1]; over 30 µM in test [2]; over 10 µM in test [3]; over 10 µM in test [4]; over 30 µM in test [5]; over 10 µM in test [6]. Further, the half-maximal activity concentration (AC50) in test [7] was over 30 µM; in test [8], over 10 µM.

With `Cc1ccc(-c2nc3ccc(C)cn3c2CC(=O)N(C)C)cc1` [ZOLPIDEM], the AC50 is over 30 µM in test [1]; over 30 µM in test [2]; over 10 µM in test [3]; over 10 µM in test [4]; over 30 µM in test [5]; over 10 µM in test [6]. The figures for the AC50 in test [7] and in test [8] were over 30 µM and over 10 µM, respectively.

For the molecule `CCCCCN(C)CCC(O)(P(=O)(O)O)P(=O)(O)O` [IBANDRONIC ACID], the AC50 in test [1] is over 30 µM; in test [2], over 30 µM; in test [3], over 10 µM; in test [4], over 10 µM; in test [5], over 30 µM; in test [6], over 10 µM. The AC50 was over 30 µM in test [7] and over 10 µM in test [8].

As for `Cc1c(C(=O)Nc2ccc(N3C[C@@H](C)O[C@@H](C)C3)nc2)cccc1-c1ccc(OC(F)(F)F)cc1` [SONIDEGIB], the AC50 in test [1] was over 30 µM; in test [2], over 30 µM; in test [3], over 10 µM; in test [4], over 10 µM; in test [5], over 30 µM; in test [6] it was over 10 µM. Also, the values for the AC50 in test [7] and in test [8] were 19.7 µM and over 10 µM, respectively.

In the case of `CN(C)C(=O)OC1N=C(c2ccccc2)c2cc(Cl)ccc2N(C)C1=O` (centres undefined) [CAMAZEPAM], the AC50 in test [1] was over 30 µM; in test [2], over 30 µM; in test [3] it was over 10 µM; in test [4], over 10 µM; in test [5] it was over 30 µM; in test [6] it was over 10 µM. Moreover, the AC50 in test [7] was over 30 µM; in test [8], over 10 µM.

Turning to `Cc1cc(-c2ccccc2)nnc1NCCN1CCOCC1` [MINAPRINE], the AC50 is over 30 µM in test [1]; over 30 µM in test [2]; over 10 µM in test [3]; over 10 µM in test [4]; over 30 µM in test [5]; over 10 µM in test [6]. The half-maximal activity concentration (AC50) in test [7] is over 30 µM; in test [8], 1.4 µM.

Consider `CN1CCN(C(=O)OC2c3nccnc3C(=O)N2c2ccc(Cl)cn2)CC1` (centres undefined) [ZOPICLONE], for which the AC50 in test [1] is over 30 µM; in test [2] it was over 30 µM; in test [3], over 10 µM; in test [4] it was over 10 µM; in test [5], over 30 µM; in test [6], over 10 µM. Also, the AC50 in test [7] was over 30 µM; in test [8], over 10 µM.

Turning to `NC(CO)C(=O)NNCc1ccc(O)c(O)c1O` (centres undefined) [BENSERAZIDE], the AC50 in test [1] was over 30 µM; in test [2], over 30 µM; in test [3] it was over 10 µM; in test [4], over 10 µM; in test [5] it was over 30 µM; in test [6], over 10 µM. For the same molecule, the AC50 in test [7] is over 30 µM; in test [8], over 10 µM.
